Measurements: the supplement of paper PMC10307832

Assays:
Test in all cases: relative viability (nuclei count vs DMSO), 5 days (fraction); higher = more cells survive
XMD14-99 + Trametinib = compound: CN1CCN(CC1)C2=CC(=C(C=C2)NC3=NC(=C(S3)C(=O)C4=C(C=CC=C4Cl)Cl)N)OC [XMD14-99] + CC(=O)Nc1cccc(-n2c(=O)n(C3CC3)c(=O)c3c(Nc4ccc(I)cc4F)n(C)c(=O)c(C)c32)c1 [Trametinib] (partner 0.02 µM)
In short: (§1)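 Values are medians from duplicate plates. Each reflects relative viability, defined as the nuclei count of treated wells over that of vehicle wells. Lung cancer cell lines in 1536-well plates were pin-tool dosed one day after seeding with one drug alone or with a fixed anchor-drug dose plus five library-drug doses (not always all listed) in √10 steps, then fixed, stained and imaged at 4× after 5 days.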

XMD14-99 + Linsitinib = compound: CN1CCN(CC1)C2=CC(=C(C=C2)NC3=NC(=C(S3)C(=O)C4=C(C=CC=C4Cl)Cl)N)OC [XMD14-99] + C[C@]1(O)C[C@@H](c2nc(-c3ccc4ccc(-c5ccccc5)nc4c3)c3c(N)nccn32)C1 [Linsitinib] (partner 1 µM)
In short: as §1

XMD14-99 + Dasatinib = compound: CN1CCN(CC1)C2=CC(=C(C=C2)NC3=NC(=C(S3)C(=O)C4=C(C=CC=C4Cl)Cl)N)OC [XMD14-99] + Cc1nc(Nc2ncc(C(=O)Nc3c(C)cccc3Cl)s2)cc(N2CCN(CCO)CC2)n1 [Dasatinib] (partner 0.075 µM)
In short: as §1

XMD14-99 + Navitoclax = compound: CN1CCN(CC1)C2=CC(=C(C=C2)NC3=NC(=C(S3)C(=O)C4=C(C=CC=C4Cl)Cl)N)OC [XMD14-99] + CC1(C)CCC(c2ccc(Cl)cc2)=C(CN2CCN(c3ccc(C(=O)NS(=O)(=O)c4ccc(N[C@H](CCN5CCOCC5)CSc5ccccc5)c(S(=O)(=O)C(F)(F)F)c4)cc3)CC2)C1 [Navitoclax] (partner 0.5 µM)
In short: as §1

XMD14-99 + Palbociclib = compound: CN1CCN(CC1)C2=CC(=C(C=C2)NC3=NC(=C(S3)C(=O)C4=C(C=CC=C4Cl)Cl)N)OC [XMD14-99] + CC(=O)c1c(C)c2cnc(Nc3ccc(N4CCNCC4)cn3)nc2n(C2CCCC2)c1=O [Palbociclib] (partner 0.5 µM)
In short: as §1

Cell Line | relative viability (XMD14-99 + Trametinib; first compound 0.08 µM) | relative viability (XMD14-99 + Trametinib; first compound 0.8 µM) | relative viability (XMD14-99 + Trametinib; first compound 2.53 µM) | relative viability (XMD14-99 + Trametinib; first compound 8 µM) | relative viability (XMD14-99 + Linsitinib; first compound 0.08 µM) | relative viability (XMD14-99 + Linsitinib; first compound 0.8 µM) | relative viability (XMD14-99 + Linsitinib; first compound 2.53 µM) | relative viability (XMD14-99 + Linsitinib; first compound 8 µM) | relative viability (XMD14-99 + Dasatinib; first compound 0.08 µM) | relative viability (XMD14-99 + Dasatinib; first compound 0.8 µM) | relative viability (XMD14-99 + Dasatinib; first compound 2.53 µM) | relative viability (XMD14-99 + Dasatinib; first compound 8 µM) | relative viability (XMD14-99 + Navitoclax; first compound 0.08 µM) | relative viability (XMD14-99 + Navitoclax; first compound 0.8 µM) | relative viability (XMD14-99 + Navitoclax; first compound 2.53 µM) | relative viability (XMD14-99 + Navitoclax; first compound 8 µM) | relative viability (XMD14-99 + Palbociclib; first compound 0.08 µM) | relative viability (XMD14-99 + Palbociclib; first compound 0.8 µM) | relative viability (XMD14-99 + Palbociclib; first compound 2.53 µM) | relative viability (XMD14-99 + Palbociclib; first compound 8 µM)
NCI-H727 | 0.352 | 0.403 | 0.384 | 0.39 | 0.303 | 0.284 | 0.247 | 0.297 | 0.322 | 0.273 | 0.309 | 0.23 | 0.399 | 0.349 | 0.339 | 0.219 | 0.691 | 0.652 | 0.609 | 0.544
NCI-H838 | 0.502 | 0.486 | 0.433 | 0.357 | 0.948 | 0.932 | 0.92 | 0.681 | 0.303 | 0.324 | 0.245 | 0.216 | 1.15 | 1.11 | 1.1 | 0.747 | 0.221 | 0.217 | 0.226 | 0.213
NCI-H1355 | 0.439 | 0.434 | 0.355 | 0.33 | 0.796 | 0.809 | 0.74 | 0.633 | 0.777 | 0.702 | 0.655 | 0.476 | 0.87 | 0.863 | 0.782 | 0.778 | 0.393 | 0.419 | 0.383 | 0.331
NCI-H1395 | 0.992 | 1.05 | 0.958 | 1 | 1.04 | 1.02 | 0.955 | 0.784 | 0.391 | 0.425 | 0.457 | 0.363 | 1.06 | 1.11 | 1.09 | 0.902 | 0.58 | 0.678 | 0.688 | 0.602
NCI-H1437 | 0.532 | 0.402 | 0.347 | 0.305 | 0.961 | 0.983 | 0.735 | 0.387 | 0.437 | 0.457 | 0.35 | 0.234 | 1.06 | 1 | 0.913 | 0.629 | 0.307 | 0.311 | 0.252 | 0.221
NCI-H1651 | 0.827 | 0.835 | 0.88 | 0.835 | 0.941 | 0.886 | 0.904 | 0.84 | 0.565 | 0.435 | 0.368 | 0.257 | 0.982 | 1.04 | 0.933 | 0.943 | 0.535 | 0.535 | 0.535 | 0.522
NCI-H1666 | 0.883 | 0.699 | 0.739 | 0.864 | 0.809 | 0.834 | 0.704 | 0.625 | 0.826 | 0.803 | 0.743 | 0.59 | 0.994 | 0.771 | 0.797 | 0.566 | 0.626 | 0.564 | 0.63 | 0.666
NCI-H1734 | 0.659 | 0.68 | 0.653 | 0.642 | 0.854 | 0.897 | 0.823 | 0.745 | 0.394 | 0.448 | 0.481 | 0.423 | 0.805 | 0.816 | 0.765 | 0.654 | 0.355 | 0.338 | 0.379 | 0.355
NCI-H1755 | 0.794 | 0.777 | 0.752 | 0.559 | 1.02 | 0.989 | 1.02 | 0.736 | 0.404 | 0.405 | 0.4 | 0.369 | 1.02 | 0.972 | 0.926 | 0.809 | 0.477 | 0.458 | 0.474 | 0.476
NCI-H1792 | 0.419 | 0.465 | 0.399 | 0.302 | 0.637 | 0.522 | 0.432 | 0.311 | 0.73 | 0.71 | 0.631 | 0.503 | 0.747 | 0.638 | 0.561 | 0.41 | 0.64 | 0.697 | 0.631 | 0.598
NCI-H1793 | 0.462 | 0.38 | 0.39 | 0.268 | 0.9 | 0.979 | 0.703 | 0.738 | 0.403 | 0.362 | 0.355 | 0.334 | 0.424 | 0.411 | 0.461 | 0.386 | 0.286 | 0.316 | 0.314 | 0.284
NCI-H1915 | 0.301 | 0.311 | 0.25 | 0.224 | 1.14 | 1.04 | 0.951 | 0.965 | 0.28 | 0.289 | 0.293 | 0.236 | 0.833 | 0.761 | 0.742 | 0.737 | 0.555 | 0.552 | 0.516 | 0.517
NCI-H1944 | 0.446 | 0.374 | 0.381 | 0.338 | 1.23 | 1.19 | 1.12 | 1.04 | 0.193 | 0.239 | 0.222 | 0.201 | 1.1 | 1.04 | 1.01 | 0.919 | 0.32 | 0.36 | 0.328 | 0.28
NCI-H1975 | 0.263 | 0.416 | 0.32 | 0.308 | 0.872 | 0.97 | 0.81 | 0.663 | 0.307 | 0.304 | 0.312 | 0.248 | 1.05 | 1.07 | 1.14 | 1.08 | 0.597 | 0.614 | 0.618 | 0.448
NCI-H1993 | 0.593 | 0.522 | 0.614 | 0.54 | 0.684 | 0.66 | 0.659 | 0.749 | 0.656 | 0.539 | 0.457 | 0.489 | 0.978 | 0.922 | 0.796 | 0.694 | 0.7 | 0.682 | 0.533 | 0.625
